In brackets after ≈: the same amount, converted by molar mass. Like-named read-outs stand apart in the source and are kept apart here. Non-standard residues stand in square brackets, D forms with d. Residues, ends and D or L forms follow the SMILES beside them. Aoc = NCCCCCCCC(=O)O; Ava = NCCCCC(=O)O; βAla = NCCC(=O)O
Assays:
[1] = test system: Staphylococcus aureus ATCC 29213; format: cell-based
[2] = test system: Escherichia coli ATCC 25922; format: cell-based
[3] = test system: Pseudomonas aeruginosa ATCC 27853; format: cell-based
[4] = Subacute toxicity in CD-1 mice; format: in vivo; details: daily IP for 7 days
Procedure: In the subacute toxicity study, groups of CD-1 male or female mice were administered seven consecutive daily intraperitoneal doses (n=3 per dose) of the peptides (SEQ ID NO: 7, SEQ ID NO: 29, SEQ ID NO: 53) dissolved in normal saline for injection. Each peptide was evaluated at 2 to 3 dose levels ranging from 2.5 to 7.5 mg/kg/day. Mice were weighed at least once daily and observed at least twice daily for any abnormal findings and determination of overall health. At 24 hrs after the last dose, mice were humanely euthanized, with blood collected through cardiac puncture into K2EDTA microtainers to assess hematological parameters. All three peptides were tolerated at the highest dose evaluated (7.5 mg/kg/day) for 7 days.

C. albicans = details: 24 h
C. glabrata = details: 24 h
C. parapsilosis = details: 24 h
C. krusei = details: 24 h
C. auris = details: 24 h
C. tropicalis = details: 24 h
C. dubliniensis = details: 24 h
C. neoformans = details: 72 h
C. gattii = details: 72 h
Coccidioides species = details: 48-72 hrs, >50% inhibition
Fusarium spp. = details: 48 h
Scedosporium spp. = details: 72 h
[5] = mice
in vitro [6] = details: human, EC50 cytotoxicity in HepG2, intracellular ATP assay
in vitro [7] = details: human, human serum, full strength
[8] = Acute toxicity in CD-1 mice; details: both sexes, mouse, in vivo
Procedure: Acute toxicity and subacute toxicity of ACPs were tested in CD-1 mice. In the acute toxicity study, groups of CD-1 male or female mice were administered single intravenous or intraperitoneal escalating doses (n=2-3 per dose) of the peptides dissolved in normal saline for injection or in phosphate buffered saline. The intravenous dose was administered via tail vein with a slow push over 15-20 seconds. Doses were escalated based on tolerability.

Rhizopus arrhizus = details: 24 h
Paecilomyces variotii = details: 48 h

## N=C(N)NCCC[C@@H](N)C(=O)N[C@@H](CCCNC(=N)N)C(=O)N[C@H](CCCNC(=N)N)C(=O)NCCCCCCCC(=O)N[C@H](CCCNC(=N)N)C(=O)N[C@@H](CCCNC(=N)N)C(=O)N[C@H](CCCNC(=N)N)C(=O)NCCCCCCCC(=O)N[C@H](CCCNC(=N)N)C(=O)N[C@@H](CCCNC(=N)N)C(=O)N[C@H](CCCNC(=N)N)C(=O)N[C@@H](CCCNC(=N)N)C(=O)NCCCCCCCC(=O)N[C@H](CCCNC(=N)N)C(=O)N[C@@H](CCCNC(=N)N)C(=O)N[C@H](CCCNC(=N)N)C(=O)N[C@@H](CCCNC(=N)N)C(N)=O [SEQ ID NO: 29, rRr-(Aoa)-rRr-(Aoa)-rRrR-(Aoa)-rRrR-NH2] (H-[dR]R[dR][Aoc][dR]R[dR][Aoc][dR]R[dR]R[Aoc][dR]R[dR]R-NH2)
[1]
  MIC Staphylococcus aureus: 16 µg/mL (≈ 6.09 µM)
[2]
  MIC Escherichia coli: 16 µg/mL (≈ 6.09 µM)
[3]
  MIC Pseudomonas aeruginosa: 32 µg/mL (≈ 12.2 µM)
[4]
  Tolerated dose (highest dose evaluated): 7.5 mg/kg/day
[4]; up to 7.5 mg/kg/day
  Clinical or hematological adverse effects: No significant clinical or hematological adverse effects were observed
C. albicans
  MIC C. albicans: 1 µg/mL (≈ 0.381 µM)
C. glabrata
  MIC C. glabrata: 0.5 µg/mL (≈ 0.19 µM)
C. parapsilosis
  MIC C. parapsilosis: 0.5 µg/mL (≈ 0.19 µM)
C. krusei
  MIC C. krusei: 0.5 µg/mL (≈ 0.19 µM)
C. auris
  MIC C. auris: 0.5 µg/mL (≈ 0.19 µM)
C. tropicalis
  MIC C. tropicalis: 0.5 µg/mL (≈ 0.19 µM)
C. dubliniensis
  MIC C. dubliniensis: 0.5 µg/mL (≈ 0.19 µM)
C. neoformans
  MIC C. neoformans: 0.5 µg/mL (≈ 0.19 µM)
C. gattii
  MIC C. gattii: 0.5 µg/mL (≈ 0.19 µM)
Coccidioides species; N = 10 strains
  MIC Range Coccidioides species: 0.06 to 0.25 µg/mL
Fusarium spp.
  MIC Range Fusarium spp.: 0.5 µg/mL (≈ 0.19 µM)
Scedosporium spp.
  MIC Range Scedosporium spp.: 0.5 µg/mL (≈ 0.19 µM)
Lomentospora prolificans
  MIC Range Lomentospora prolificans: 0.5 µg/mL (≈ 0.19 µM)
[5]; 6 hrs post dose of 7.5 mg/kg IP once daily, Day 7, mean ± SD, n = 3
  Kidney to Plasma Concentration Ratio Day 7: 361 ± 322
[5]; 6 hrs post dose of 7.5 mg/kg IP, Day 1, mean ± SD, n = 3
  Kidney to Plasma Concentration Ratio Day 1: 236 ± 233
[5]; IP 7.5 mg/kg, Day 1
  Day 1 AUC ratio, kidney to plasma: 158
In vitro [6]
  EC50: > 300 µg/mL
In vitro [7]
  remaining at 2 h, 5 μM: ~100%

## N=C(N)NCCC[C@@H](N)C(=O)N[C@@H](CCCNC(=N)N)C(=O)N[C@H](CCCNC(=N)N)C(=O)N1CCC[C@H]1C(=O)N[C@H](CCCNC(=N)N)C(=O)N[C@@H](CCCNC(=N)N)C(=O)N1CCC[C@H]1C(=O)N[C@H](CCCNC(=N)N)C(=O)N[C@@H](CCCNC(=N)N)C(=O)N1CCC[C@H]1C(=O)N[C@H](CCCNC(=N)N)C(=O)N[C@@H](CCCNC(=N)N)C(=O)N[C@H](CCCNC(=N)N)C(N)=O [SEQ ID NO: 70, rRr-P-rR-P-rR-P-rRr-NH2] (H-[dR]R[dR]P[dR]RP[dR]RP[dR]R[dR]-NH2)
C. albicans
  MIC C. albicans: 0.5 µg/mL (≈ 0.267 µM)
C. glabrata
  MIC C. glabrata: 4 µg/mL (≈ 2.14 µM)
C. parapsilosis
  MIC C. parapsilosis: 2 µg/mL (≈ 1.07 µM)
C. krusei
  MIC C. krusei: 2 µg/mL (≈ 1.07 µM)
C. auris
  MIC C. auris: >32 µg/mL
C. tropicalis
  MIC C. tropicalis: 1 µg/mL (≈ 0.535 µM)
C. dubliniensis
  MIC C. dubliniensis: 1 µg/mL (≈ 0.535 µM)
C. neoformans
  MIC C. neoformans: 8 µg/mL (≈ 4.28 µM)
C. gattii
  MIC C. gattii: 4 µg/mL (≈ 2.14 µM)
Scedosporium spp.
  MIC Range Scedosporium spp.: 8 µg/mL (≈ 4.28 µM)
Lomentospora prolificans
  MIC Range Lomentospora prolificans: 32 µg/mL (≈ 17.1 µM)
Candida spp.
  Activity at 24 h MIC50 against Candida spp.: 4 µg/mL
  Activity at 24 h MIC90 against Candida spp.: >32 µg/mL
  Activity at 48 h MIC50 against Candida spp.: 8 µg/mL
  Activity at 48 h MIC90 against Candida spp.: >32 µg/mL
Cryptococcus spp.
  MIC Range Cryptococcus spp.: 1 to 8 µg/mL

## N=C(N)NCCC[C@@H](N)C(=O)N[C@@H](CCCNC(=N)N)C(=O)N[C@H](CCCNC(=N)N)C(=O)NCCC(=O)N[C@H](CCCNC(=N)N)C(=O)N[C@@H](CCCNC(=N)N)C(=O)N[C@H](CCCNC(=N)N)C(=O)NCCC(=O)N[C@H](CCCNC(=N)N)C(=O)N[C@@H](CCCNC(=N)N)C(=O)N[C@H](CCCNC(=N)N)C(=O)N[C@@H](CCCNC(=N)N)C(=O)NCCC(=O)N[C@H](CCCNC(=N)N)C(=O)N[C@@H](CCCNC(=N)N)C(=O)N[C@H](CCCNC(=N)N)C(=O)N[C@@H](CCCNC(=N)N)C(=O)O [SEQ ID NO: 8, rRr-(Apr)-rRr-(Apr)-rRrR-(Apr)-rRrR] (H-[dR]R[dR][βAla][dR]R[dR][βAla][dR]R[dR]R[βAla][dR]R[dR]R-OH)
[8]; single IP dose, read-out: Tolerated single intraperitoneal dose
  MTD: 10 to 15 mg/kg
[8]; single IV dose via tail vein, read-out: Tolerated single intravenous dose
  MTD: 5 to 7.5 mg/kg
C. albicans
  MIC C. albicans: 0.5 µg/mL (≈ 0.207 µM)
C. glabrata
  MIC C. glabrata: 0.5 µg/mL (≈ 0.207 µM)
C. parapsilosis
  MIC C. parapsilosis: 0.25 µg/mL (≈ 0.103 µM)
C. krusei
  MIC C. krusei: 0.5 µg/mL (≈ 0.207 µM)
C. auris
  MIC C. auris: 4 µg/mL (≈ 1.65 µM)
C. tropicalis
  MIC C. tropicalis: 0.25 µg/mL (≈ 0.103 µM)
C. dubliniensis
  MIC C. dubliniensis: 0.25 µg/mL (≈ 0.103 µM)
C. neoformans
  MIC C. neoformans: 0.5 µg/mL (≈ 0.207 µM)
C. gattii
  MIC C. gattii: 0.25 µg/mL (≈ 0.103 µM)
Coccidioides species; N = 3 strains
  MIC Range Coccidioides species: 0.25 to 0.5 µg/mL
Fusarium spp.
  MIC Range Fusarium spp.: 0.25 to 0.5 µg/mL
Scedosporium spp.
  MIC Range Scedosporium spp.: ≤0.12 µg/mL
Lomentospora prolificans
  MIC Range Lomentospora prolificans: ≤0.12 µg/mL
Rhizopus arrhizus
  MIC Range Rhizopus arrhizus: 2 to 32 µg/mL
Paecilomyces variotii
  MIC Range Paecilomyces variotii: 0.25 µg/mL (≈ 0.103 µM)
In vitro [6]
  EC50: > 300 µg/mL
In vitro [7]
  remaining at 2 h, 5 μM: ~100%

## N=C(N)NCCC[C@@H](N)C(=O)N[C@@H](CCCNC(=N)N)C(=O)N[C@H](CCCNC(=N)N)C(=O)NCCCCC(=O)N[C@H](CCCNC(=N)N)C(=O)N[C@@H](CCCNC(=N)N)C(=O)N[C@H](CCCNC(=N)N)C(=O)NCCCCC(=O)N[C@H](CCCNC(=N)N)C(=O)N[C@@H](CCCNC(=N)N)C(=O)N[C@H](CCCNC(=N)N)C(=O)NCCCCC(=O)N[C@H](CCCNC(=N)N)C(=O)N[C@@H](CCCNC(=N)N)C(=O)N[C@H](CCCNC(=N)N)C(N)=O [SEQ ID NO: 22, rRr-(Ava)-rRr-(Ava)-rRr-(Ava)-rRr-NH2] (H-[dR]R[dR][Ava][dR]R[dR][Ava][dR]R[dR][Ava][dR]R[dR]-NH2)
C. albicans
  MIC C. albicans: 0.5 µg/mL (≈ 0.228 µM)
C. glabrata
  MIC C. glabrata: 0.5 µg/mL (≈ 0.228 µM)
C. parapsilosis
  MIC C. parapsilosis: 0.25 µg/mL (≈ 0.114 µM)
C. krusei
  MIC C. krusei: 1 µg/mL (≈ 0.457 µM)
C. auris
  MIC C. auris: 2 µg/mL (≈ 0.914 µM)
C. tropicalis
  MIC C. tropicalis: 0.5 µg/mL (≈ 0.228 µM)
C. dubliniensis
  MIC C. dubliniensis: 0.25 µg/mL (≈ 0.114 µM)
C. neoformans
  MIC C. neoformans: 1 µg/mL (≈ 0.457 µM)
C. gattii
  MIC C. gattii: 0.5 µg/mL (≈ 0.228 µM)
Fusarium spp.
  MIC Range Fusarium spp.: 0.5 to 16 µg/mL
Scedosporium spp.
  MIC Range Scedosporium spp.: 1 to 2 µg/mL
Lomentospora prolificans
  MIC Range Lomentospora prolificans: 2 µg/mL (≈ 0.914 µM)
Candida spp.
  Activity at 24 h MIC50 against Candida spp.: 1 µg/mL
  Activity at 24 h MIC90 against Candida spp.: 8 µg/mL
  Activity at 48 h MIC50 against Candida spp.: 2 µg/mL
  Activity at 48 h MIC90 against Candida spp.: 32 µg/mL
Cryptococcus spp.
  MIC Range Cryptococcus spp.: 0.5 to 1 µg/mL
Filamentous Fungi
  MIC Range Filamentous Fungi: 0.5 to 16 µg/mL

## N=C(N)NCCC[C@@H](N)C(=O)N[C@@H](CCCNC(=N)N)C(=O)N[C@H](CCCNC(=N)N)C(=O)NCCCCC(=O)N[C@H](CCCNC(=N)N)C(=O)N[C@@H](CCCNC(=N)N)C(=O)NCCCCC(=O)N[C@H](CCCNC(=N)N)C(=O)N[C@@H](CCCNC(=N)N)C(=O)NCCCCC(=O)N[C@H](CCCNC(=N)N)C(=O)N[C@@H](CCCNC(=N)N)C(=O)N[C@H](CCCNC(=N)N)C(N)=O [SEQ ID NO: 28, rRr-(Ava)-rR-(Ava)-rR-(Ava)-rRr-NH2] (H-[dR]R[dR][Ava][dR]R[Ava][dR]R[Ava][dR]R[dR]-NH2)
C. albicans
  MIC C. albicans: 2 µg/mL (≈ 1.07 µM)
C. glabrata
  MIC C. glabrata: 4 µg/mL (≈ 2.13 µM)
C. parapsilosis
  MIC C. parapsilosis: 0.5 µg/mL (≈ 0.266 µM)
C. krusei
  MIC C. krusei: 8 µg/mL (≈ 4.26 µM)
C. auris
  MIC C. auris: >32 µg/mL
C. tropicalis
  MIC C. tropicalis: 1 µg/mL (≈ 0.533 µM)
C. dubliniensis
  MIC C. dubliniensis: 1 µg/mL (≈ 0.533 µM)
C. neoformans
  MIC C. neoformans: 8 µg/mL (≈ 4.26 µM)
C. gattii
  MIC C. gattii: 4 µg/mL (≈ 2.13 µM)
Scedosporium spp.
  MIC Range Scedosporium spp.: 4 µg/mL (≈ 2.13 µM)
Lomentospora prolificans
  MIC Range Lomentospora prolificans: 32 µg/mL (≈ 17.1 µM)
Candida spp.
  Activity at 24 h MIC50 against Candida spp.: 8 µg/mL
  Activity at 24 h MIC90 against Candida spp.: >32 µg/mL
  Activity at 48 h MIC50 against Candida spp.: 8 µg/mL
  Activity at 48 h MIC90 against Candida spp.: >32 µg/mL
Cryptococcus spp.
  MIC Range Cryptococcus spp.: 2 to 8 µg/mL
